# Test results: ChEMBL document CHEMBL3507680, “University of Dundee, Gates Library screen for HepG2 cell viability”
# Test: Human HepG2 cell viability assay in 384 well format
# Type: toxicity, cell-based
# Parameters: dose 125 nL, time 70.5 hour; cytotoxicity at 70.5 h: concentration not given beside the values
# Details: HepG2 cells, read-out: Inhibition
row,SMILES,cytotoxicity at 70.5 h
1,Cc1cc(NC(=O)CCN2CCCCC2Cn2cccn2)no1 (centres undefined),-11.9%
2,COCCc1noc(CN2CCCC(Cn3cncn3)C2)n1 (centres undefined),-7.84%
3,CCOc1ccc(C(=O)N2CCCCC2Cn2nc(C)cc2C)cn1 (centres undefined),21%
4,Cc1nn(C)c(C)c1C1CCCN1CC(=O)NCc1ccccn1 (centres undefined),-5.71%
5,Cc1cc(C(=O)N2CCCC(n3cncn3)C2)nn1C (centres undefined),-10.8%
6,Cc1cc(NC(=O)CCN2CCCC2Cn2cccn2)no1 (centres undefined),-6.26%
7,Cc1nn(C)c(Cl)c1C1CCCN1Cc1ccccn1 (centres undefined),-7.44%
8,O=C(c1ccnc(-n2ccnc2)c1)N1CCCC(n2cccn2)C1 (centres undefined),-2.44%
9,Cn1cc(C(=O)CC2CCCN2C(=O)c2cccc3ncccc23)cn1 (centres undefined),14.5%
10,Cc1cc(C)n(CC2CCCN2C(=O)c2ccc3ccccc3n2)n1 (centres undefined),-10.7%
11,COCCNC(=O)CN1CCCC1c1c(C)nn(C)c1Cl (centres undefined),-1.71%
12,COc1ccc(C(=O)N2CCCC(n3cncn3)C2)nn1 (centres undefined),10.5%
13,CCc1ccccc1C(=O)N1CCCC1CC(=O)c1cnn(C)c1 (centres undefined),-13.4%
14,c1ncn(CC2CN(CCCOc3ccc4c(c3)OCO4)CCO2)n1 (centres undefined),-4.94%
15,Cc1nc(C)n(CC2CCCN(CCCc3ccccc3)C2)n1 (centres undefined),4.81%
16,COc1cccc(CNC(=O)c2cccnc2SC(C)C)c1,-5.9%
17,CC(NC(=O)Cn1cc(-c2ccccc2)cn1)C1CC1 (centres undefined),-6.64%
18,Cc1cc(C)c(CNC(=O)N2CCCC2c2cccc(F)c2)c(=O)[nH]1 (centres undefined),26%
19,c1cc(CNCC2CNc3ccnn3C2)cc(N2CCOCC2)n1 (centres undefined),-5.11%
20,c1cc(CNCC2CNc3ccnn3C2)cc(OC2CCCC2)n1 (centres undefined),-5.92%

row,SMILES,cytotoxicity at 70.5 h
1,Cc1cc(C)c(CNC(=O)N2CCCC2c2ccccn2)c(=O)[nH]1 (centres undefined),-6.29%
2,CCC(CC)NC(=O)Cn1cc(-c2ccccc2)cn1,-2.71%
3,COc1ccccc1OCCNC(=O)N1CCC(n2cncn2)CC1,-4.48%
4,CCOc1ncccc1CNC(=O)N1CCC(n2cncn2)CC1,-0.329%
5,O=C1NCC(C(=O)Nc2ncc(Cc3cccc(F)c3)s2)N1 (centres undefined),-6.09%
6,CC(C)c1cc(NC(=O)CNC2CCCN(c3cccnn3)C2)on1 (centres undefined),3.11%
7,Cc1nc(C)n(C2CCCN(C(=O)CCCNc3ncccn3)C2)n1 (centres undefined),-4.88%
8,Cc1ccn(-c2ccc(C(=O)N3CCCC(n4ccnc4)C3)cc2)n1 (centres undefined),-22.3%
9,Cn1nccc1C1CCN(CC(O)c2cccc(F)c2)CC1 (centres undefined),-8.37%
10,CN(C)c1ncccc1CNC(=O)N1CCCC1CN1CCCCC1 (centres undefined),-32%
11,O=C(CN1CCN(C(=O)Cc2ccc3c(c2)OCCO3)CC1)NC1CC1,-12.7%
12,c1ccc(Cn2cncn2)c(CNCC2CNc3ccnn3C2)c1 (centres undefined),-13.5%
13,CC(=O)N1CCCN(C(=O)c2ccn(-c3cccc(Cl)c3)n2)CC1,-26.5%
14,COc1ccc(C(=O)N2CCCCC2Cn2cccn2)c(F)c1 (centres undefined),-13.3%
15,CCn1ccnc1CN1CCOC(CNc2cccnn2)C1 (centres undefined),-9.35%
16,Cc1cc(C(=O)NCc2ccnc(N(C)C)c2)c(C)o1,-13.2%
17,O=C(NCCN1CCCCCC1=O)c1n[nH]c(=O)c2ccccc12,-20.8%
18,CN(C)c1ncccc1CNC(=O)N1CCCC1c1ccsc1 (centres undefined),-16.3%
19,O=C1OCCN1CCc1nc(-c2cc3c4c(c2)CC(=O)N4CCC3)cs1,10.6%
20,c1ccc(Cn2cccn2)c(CNCC2CNc3ccnn3C2)c1 (centres undefined),-11.7%

row,SMILES,cytotoxicity at 70.5 h
1,O=C(c1ccn(-c2cccc(Cl)c2)n1)N1CCN(C2CC2)CC1,-0.559%
2,COc1ccc2cc(C(=O)N3CCCCC3CC(N)=O)[nH]c2c1 (centres undefined),-15.1%
3,Cc1cccc(-c2nc(CN3CCc4cnc(C)nc4C3)no2)c1,-21.3%
4,Cc1ncc2c(n1)CN(Cc1noc(C3CC3)n1)CC2,15.6%
5,Cc1cc(C)n(C2CN(CC(O)c3ccc(F)cc3)C2)n1 (centres undefined),-10.7%
6,COc1ncccc1CNc1cc(N2CCCC2CO)ncn1 (centres undefined),-12%
7,Cc1cnc(CN2CCOC(CNc3cccnn3)C2)cn1 (centres undefined),-8.2%
8,CCN1CCC(NC(=O)CN2CCc3c(nc(C4CC4)n3C)C2)CC1,-10.9%
9,c1ccc(Cn2ccnc2CN2CCCC2c2noc(C3CC3)n2)cc1 (centres undefined),8.17%
10,O=C(NCC1CCSCC1)N(CCCO)C1CCc2ccccc21 (centres undefined),24.2%
11,CC(C)c1noc(CCCC(=O)NC2CCS(=O)(=O)C2)n1 (centres undefined),-0.791%
12,CC(NC(=O)NCCCn1cncn1)c1ccccc1Cl (centres undefined),-2.04%
13,CC(C)c1noc(CCC(=O)NCC2CCOC2)n1 (centres undefined),-2.41%
14,COc1ccc(C)cc1C(C)NC(=O)NCCCn1cncn1 (centres undefined),-10.9%
15,NC(=O)CN1CCCN(C(=O)Cc2ccc(F)c(Br)c2)CC1,-8.24%
16,O=C(NCCNC(=O)c1scnc1Cl)c1ccccc1,-6.16%
17,NC(=O)CN1CCCN(C(=O)Cc2ccc3c(c2)OCO3)CC1,-2.14%
18,Cn1ncc(C(=O)N2CCCC(n3cccn3)C2)c1C1CC1 (centres undefined),-4.62%
19,CCCNCc1cn(C)nc1-c1cccnc1,-7.26%
